Experimental data from publication PMC9525273 (Nature Communications, 2022).
Values joined by “and” are separate entries in the source; they are usually repeats but may differ in a detail not shown here. Identical values can stand only once. Like-named read-outs stand apart in the source and are kept apart here.

Assays:
Dd2-B2 parasites = assay: P. falciparum proliferation assay (72 h, flow cytometry, SYBR Green I/MitoTracker); assay type: cell-based; conditions: Plasmodium falciparum, DD2, read-out: IC50 value
Description: (§1) Two types of parasite proliferation assays were employed in this study, with both yielding highly consistent results. For the NF54-based lines and Dd2-B2-PfATP4^G358S and its parent, assays were initiated with cultures containing predominantly ring-stage parasites with a parasitaemia of 0.3% and a haematocrit of 1%. All assays using NF54 were performed in culture media containing 10% O + human serum. The duration of the assays was 72 h and the concentration of DMSO was <0.5% (v/v). Serial dilutions of the test compounds were performed using a Tecan D300e digital dispenser, with parasite cultures added manually. Parasite survival was assessed by flow cytometry on an Intellicyt iQue3 (Essen Bioscience), with 1× SYBR Green I (Invitrogen) and 200 nM MitoTracker Deep Red FM (Invitrogen) used to stain the nucleus and the mitochondria in live parasites, respectively. The gating strategy used to quantify parasite survival, performed using FlowJo version 10 (FlowJo LLC.), is illustrated in Supplementary Fig. 9. IC50 and IC90 values were calculated by linear interpolation of the dose-response data.

[1] = system: Dd2-B2-PfATP4^G358S parasites; assay: as above; assay type: cell-based; conditions: Plasmodium falciparum; Dd2-B2-PfATP4G358S; mean ± SEM
Description: as §1

[2] = system: extracellular T. gondii tachyzoites expressing TgATP4^WT; assay: [Na+]cyt measurement (SBFI), Na+ dysregulation; assay type: cell-based, Toxoplasma gondii; design: Final [Na+]cyt reached: unit not given here
Description: (§2) The ratio of the fluorescence intensity recorded at 340 nm and 380 nm (with an emission wavelength of 515 nm) was converted to [Na^+]cyt using a calibration procedure that entailed suspending parasites in solutions of varying [Na^+] containing ionophores. Fluorescence measurements and calibrations were performed at 37 °C, either with individual 1 mL suspensions using a PerkinElmer LS 50B fluorescence spectrometer (for resting [Na^+]cyt measurements for which the data are shown in Supplementary Fig. 7) or in 96-well plates using a Tecan Infinite M1000 PRO plate reader with i-control (version 1.12) software (all other [Na^+]cyt measurements).

[3] = system: extracellular T. gondii tachyzoites expressing TgATP4^G419S-HA; assay: [Na+]cyt measurement (SBFI), Na+ dysregulation; assay type: cell-based, Toxoplasma gondii; design: Final [Na+]cyt reached: unit not given here; conditions: TgATP4G419S-HA; for IC50: Toxoplasma gondii
Description: as §2

[4] = system: isolated Dd2-Polδ P. falciparum trophozoites; assay: [Na+]cyt measurement (SBFI), Na+ dysregulation; assay type: cell-based, Plasmodium falciparum; design: Final [Na+]cyt reached: unit not given here; conditions: for Final [Na+]cyt reached: Dd2-Polδ; for IC50: Plasmodium falciparum
Description: as §2

[5] = system: isolated Dd2-Polδ-PfATP4^G358S P. falciparum trophozoites; assay: [Na+]cyt measurement (SBFI), Na+ dysregulation; assay type: cell-based, Plasmodium falciparum; design: Final [Na+]cyt reached: unit not given here
Description: as §2

[6] = system: parasite lines with a G358S mutation in PfATP4; assay: P. falciparum proliferation assays, statements on all lines with the G358S mutation; assay type: cell-based, Plasmodium falciparum; conditions: G358S lines vs PfATP4 wild-type controls
Description: as §1
For experiments with all other parasites, the effects of compounds of interest on parasite proliferation was measured in 96-well plates containing serial dilutions of the compounds in culture medium, with a fluorescent DNA-intercalating dye used to detect surviving parasites. The assays were initiated with erythrocytes infected with predominantly ring-stage parasites, and the starting parasitaemia and haematocrit were both 1%. […] Fluorescence was measured using a FLUOstar OPTIMA plate reader (BMG LABTECH), with OPTIMA version 2.20R2 and MARS Data Analysis Software version 3.01 R2 (BMG LABTECH).

[7] = [cipargamin] 62.5 nM, single experiments
[8] = [cipargamin] 250 nM, single experiments

## C[C@H]1Cc2c([nH]c3cc(Cl)c(F)cc23)[C@@]2(N1)C(=O)Nc1ccc(Cl)cc12 [Cipargamin]
Dd2-B2 parasites
  IC50: 2.17 ± 0.24 nM
[1]
  IC50: 1640 ± 80 nM
[2]; Toxoplasma gondii, 1.5 h, pH 7.1, WT T. gondii (TgATP4WT), ~90 min exposure, 37 °C, pH 7.1, mean ± SEM, read-out: IC50 for Na+ dysregulation
  IC50: 110 ± 3 nM
[2]; Toxoplasma gondii, WT T. gondii, MEAN, source data of Table 1 (nM there), read-out: IC50 for Na+ dysregulation, MEAN
  IC50: 110 nM
[2]; Toxoplasma gondii, WT T. gondii, single experiments, source data of Table 1 (nM there), read-out: IC50 for Na+ dysregulation
  IC50: 103 nM
[2]; WT T. gondii, [cipargamin] 0.5 nM, MEAN
  Final [Na+]cyt reached: 15.8
[2]; WT T. gondii, [cipargamin] 0.5 nM, single experiments
  Final [Na+]cyt reached: 14.2 and 16.3 and 16.8
[2]; WT T. gondii, [cipargamin] 1.0 nM, MEAN
  Final [Na+]cyt reached: 16.2
[2]; WT T. gondii, [cipargamin] 1.0 nM, single experiments
  Final [Na+]cyt reached: 15.5 and 17.0 and 16.2
[2]; WT T. gondii, [cipargamin] 2.0 nM, MEAN
  Final [Na+]cyt reached: 14.1
[2]; WT T. gondii, [cipargamin] 3.9 nM, MEAN
  Final [Na+]cyt reached: 20.7
[2]; WT T. gondii, [cipargamin] 3.9 nM, single experiments
  Final [Na+]cyt reached: 19.6 and 20.6 and 21.8
[2]; WT T. gondii, [cipargamin] 7.8 nM, MEAN
  Final [Na+]cyt reached: 23.3
[2]; WT T. gondii, [cipargamin] 7.8 nM, single experiments
  Final [Na+]cyt reached: 25.2 and 22.3 and 22.5
[2]; WT T. gondii, [cipargamin] 15.6 nM, MEAN
  Final [Na+]cyt reached: 26.7
[2]; WT T. gondii, [cipargamin] 15.6 nM, single experiments
  Final [Na+]cyt reached: 29.0 and 26.8 and 24.3
[2]; WT T. gondii, [cipargamin] 31.3 nM, MEAN
  Final [Na+]cyt reached: 34.0
[2]; WT T. gondii, [cipargamin] 31.3 nM, single experiments
  Final [Na+]cyt reached: 35.7 and 36.9 and 29.4
[2]; WT T. gondii, [cipargamin] 62.5 nM, MEAN
  Final [Na+]cyt reached: 44.2
[2]; WT T. gondii, [cipargamin] 62.5 nM, single experiments
  Final [Na+]cyt reached: 43.2 and 51.7 and 37.6
[2]; WT T. gondii, [cipargamin] 250 nM, MEAN
  Final [Na+]cyt reached: 75.6
[2]; WT T. gondii, [cipargamin] 250 nM, single experiments
  Final [Na+]cyt reached: 72.9 and 86.9 and 66.9
[2]; WT T. gondii, [cipargamin] 500 nM, MEAN
  Final [Na+]cyt reached: 86.6
[2]; WT T. gondii, [cipargamin] 500 nM, single experiments
  Final [Na+]cyt reached: 82.0 and 102.0 and 75.9
[2]; WT T. gondii, [cipargamin] 1000 nM, MEAN
  Final [Na+]cyt reached: 91.2
[2]; WT T. gondii, [cipargamin] 1000 nM, single experiments
  Final [Na+]cyt reached: 85.2 and 107.2 and 81.2
[2]; WT T. gondii, single experiments, source data of Table 1 (nM there), read-out: IC50 for Na+ dysregulation
  IC50: 113 nM
[3]; [cipargamin] 7.8 nM, MEAN
  Final [Na+]cyt reached: 14.1
[3]; [cipargamin] 7.8 nM, single experiments
  Final [Na+]cyt reached: 13.4 and 14.3 and 14.5
[3]; [cipargamin] 15.6 nM, MEAN
  Final [Na+]cyt reached: 15.4
[3]; [cipargamin] 15.6 nM, single experiments
  Final [Na+]cyt reached: 14.1 and 15.1 and 17.0
[3]; [cipargamin] 31.3 nM, MEAN
  Final [Na+]cyt reached: 15.4
[3]; [cipargamin] 31.3 nM, single experiments
  Final [Na+]cyt reached: 13.9 and 14.5 and 17.9
[3]; [cipargamin] 62.5 nM, MEAN
  Final [Na+]cyt reached: 14.3
[3]; [7]
  Final [Na+]cyt reached: 13.2 and 14.1 and 15.7
[3]; [cipargamin] 250 nM, MEAN
  Final [Na+]cyt reached: 13.7
[3]; [8]
  Final [Na+]cyt reached: 13.6 and 14.5 and 12.9
[3]; [cipargamin] 500 nM, MEAN
  Final [Na+]cyt reached: 14.5
[3]; [cipargamin] 500 nM, single experiments
  Final [Na+]cyt reached: 12.6 and 13.5 and 17.5
[3]; [cipargamin] 1000 nM, MEAN
  Final [Na+]cyt reached: 16.4
[3]; [cipargamin] 1000 nM, single experiments
  Final [Na+]cyt reached: 14.3 and 16.7 and 18.1
[3]; [cipargamin] 2000 nM, MEAN
  Final [Na+]cyt reached: 17.1
[3]; [cipargamin] 2000 nM, single experiments
  Final [Na+]cyt reached: 13.3 and 17.0 and 20.8
[3]; [cipargamin] 4000 nM, MEAN
  Final [Na+]cyt reached: 24.3
[3]; [cipargamin] 4000 nM, single experiments
  Final [Na+]cyt reached: 22.1 and 21.4 and 29.4
[3]; [cipargamin] 8000 nM, MEAN
  Final [Na+]cyt reached: 34.2
[3]; [cipargamin] 8000 nM, single experiments
  Final [Na+]cyt reached: 32.0 and 31.0 and 39.5
[3]; 1.5 h, ~90 min exposure, 37 °C, pH 7.1, read-out: IC50 for Na+ dysregulation
  IC50: > 8000 nM
[3]; MEAN, source data of Table 1 (nM there), read-out: IC50 for Na+ dysregulation, MEAN
  IC50: > 8000 nM
[3]; single experiments, source data of Table 1 (nM there), read-out: IC50 for Na+ dysregulation
  IC50: > 8000 nM
[4]; [cipargamin] 0.06 nM, MEAN
  Final [Na+]cyt reached: 13.0
[4]; [cipargamin] 0.12 nM, MEAN
  Final [Na+]cyt reached: 12.3
[4]; [cipargamin] 0.244 nM, MEAN
  Final [Na+]cyt reached: 15.5
[4]; [cipargamin] 0.5 nM, MEAN
  Final [Na+]cyt reached: 26.2
[4]; [cipargamin] 1.0 nM, MEAN
  Final [Na+]cyt reached: 27.3
[4]; [cipargamin] 2.0 nM, MEAN
  Final [Na+]cyt reached: 45.7
[4]; [cipargamin] 3.9 nM, MEAN
  Final [Na+]cyt reached: 57.4
[4]; [cipargamin] 7.8 nM, MEAN
  Final [Na+]cyt reached: 88.5
[4]; [cipargamin] 15.6 nM, MEAN
  Final [Na+]cyt reached: 98.7
[4]; [cipargamin] 31.3 nM, MEAN
  Final [Na+]cyt reached: 113.1
[4]; [cipargamin] 62.5 nM, MEAN
  Final [Na+]cyt reached: 115.1
[4]; [7]
  Final [Na+]cyt reached: 78.0 and 146.2 and 96.4 and 129.7 and 125.5
[4]; [cipargamin] 250 nM, MEAN
  Final [Na+]cyt reached: 115.9
[4]; [8]
  Final [Na+]cyt reached: 94.4 and 105.7 and 130.4 and 132.9
[4]; DD2, 1.5 h, pH 7.1, Dd2-Polδ, ~90 min exposure, 37 °C, pH 7.1, mean ± SEM, read-out: IC50 for Na+ dysregulation
  IC50: 8.4 ± 3 nM
[4]; DD2, Dd2-Polδ, MEAN, source data of Table 1 (nM there), read-out: IC50 for Na+ dysregulation, MEAN
  IC50: 8.38 nM
[5]; Dd2-Polδ-PfATP4G358S, [cipargamin] 4.9 nM, MEAN
  Final [Na+]cyt reached: 28.1
[5]; Dd2-Polδ-PfATP4G358S, [cipargamin] 4.9 nM, single experiments
  Final [Na+]cyt reached: 19.9 and 30.8 and 33.6
[5]; Dd2-Polδ-PfATP4G358S, [cipargamin] 9.8 nM, MEAN
  Final [Na+]cyt reached: 23.6
[5]; Dd2-Polδ-PfATP4G358S, [cipargamin] 19.5 nM, MEAN
  Final [Na+]cyt reached: 24.9
[5]; Dd2-Polδ-PfATP4G358S, [cipargamin] 39.1 nM, MEAN
  Final [Na+]cyt reached: 26.7
[5]; Dd2-Polδ-PfATP4G358S, [cipargamin] 78.1 nM, MEAN
  Final [Na+]cyt reached: 27.0
[5]; Dd2-Polδ-PfATP4G358S, [cipargamin] 156.3 nM, MEAN
  Final [Na+]cyt reached: 28.5
[5]; Dd2-Polδ-PfATP4G358S, [cipargamin] 312.5 nM, MEAN
  Final [Na+]cyt reached: 31.8
[5]; Dd2-Polδ-PfATP4G358S, [cipargamin] 625 nM, MEAN
  Final [Na+]cyt reached: 35.9
[5]; Dd2-Polδ-PfATP4G358S, [cipargamin] 2500 nM, MEAN
  Final [Na+]cyt reached: 55.3
[5]; Dd2-Polδ-PfATP4G358S, [cipargamin] 5000 nM, MEAN
  Final [Na+]cyt reached: 78.8
[5]; Dd2-Polδ-PfATP4G358S, [cipargamin] 10000 nM, MEAN
  Final [Na+]cyt reached: 93.3
[5]; Dd2-Polδ-PfATP4G358S, single experiments, source data of Table 1 (nM there), read-out: IC50 for Na+ dysregulation
  IC50: > 2500 nM and 3420 nM and 2100 nM and 3020 nM
[5]; Plasmodium falciparum, DD2, 1.5 h, pH 7.1, Dd2-Polδ-PfATP4G358S, ~90 min exposure, 37 °C, pH 7.1, read-out: IC50 for Na+ dysregulation
  IC50: > 2000 nM
[5]; Plasmodium falciparum, DD2, Dd2-Polδ-PfATP4G358S, MEAN, source data of Table 1 (nM there), read-out: IC50 for Na+ dysregulation, MEAN
  IC50: > 2000 nM
[5]; Plasmodium falciparum, DD2, Dd2-Polδ-PfATP4G358S, single experiments, source data of Table 1 (nM there), read-out: IC50 for Na+ dysregulation
  IC50: 3540 nM

## C[C@H]1[C@@H](O)O[C@@H]2O[C@@]3(C)CC[C@H]4[C@H](C)CC[C@@H]1[C@@]24OO3 [Dihydroartemisinin]
[6]
  effect of the G358S mutation in PfATP4 on parasite susceptibility: no effect
